Experimental data: patent US11174216B2, “Lipids that increase insulin sensitivity and methods of using the same” (Beth Israel Deaconess Medical Center, Inc., priority 2012, dated 2021)

Tests used:
Assay type in all cases: cell-based
GPR120 = molecular target: T1, GPR120 (Homo sapiens, UniProt Q5NUL3); assay: PATHHUNTER beta-Arrestin GPCR assay
T1 sequence (Q5NUL3 1-361): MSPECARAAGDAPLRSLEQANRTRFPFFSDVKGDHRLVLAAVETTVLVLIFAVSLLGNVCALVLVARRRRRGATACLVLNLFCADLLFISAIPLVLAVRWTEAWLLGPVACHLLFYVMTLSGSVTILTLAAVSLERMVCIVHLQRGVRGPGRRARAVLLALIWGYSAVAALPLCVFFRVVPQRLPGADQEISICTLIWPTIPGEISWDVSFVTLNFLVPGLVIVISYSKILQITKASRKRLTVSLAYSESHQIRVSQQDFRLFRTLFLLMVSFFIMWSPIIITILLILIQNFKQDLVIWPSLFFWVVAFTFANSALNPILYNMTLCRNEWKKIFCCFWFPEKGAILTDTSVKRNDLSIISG
From the text: For the experiments summarized in FIGS. 53-55, the fragment based GPCR assay from DiscoveRx (PATHHUNTER® β-Arrestin assay) was used to as per manufacturer's instructions to determine activation of specific GPCRs as indicated in FIGS. 53-55.

Ins1 cells = assay: Insulin release studies in Ins1 cells; settings: 25 mM glucose in the media
Procedure: Ins1 cells (FIGS. 31A and 31B) or primary rat islet cells (FIG. 32A and FIG. 32B) were seeded in 24 well-plates [˜10^6 cells/well]. At confluence, cells were incubated with Low Serum [2.5%] and Low Glucose [2.5 mM] media for 12 hours. Next, cells were incubated with KRB buffer for 1 h and stimulated with glucose in the presence of 5-PAHSA (FIGS. 31a and 31B) or 9-PAHSA (FIG. 31B) for 45 min in KRB. At the end of the stimulation, 100 μL of media was collected and 10 μL was used to quantitate the amount of insulin released by ELISA. Treatment Conditions for FIGS. 31A, 31B and 32B were: • 5-PAHSA or 9-PAHSA [Stock]=20.0 mM [10.76 mg/mL Methanol] • A] 1 uM=0.3 uL/6 mL [Amount of methanol/mL=0.05 uL] • B] 5 uM=1.5 uL/6 mL [Amount of methanol/mL=0.25 uL] • C] 10 uM=3.0 uL/6 mL [Amount of methanol/mL=0.50 uL] • D] 20 uM=6.0 uL/6 mL [Amount of methanol/mL=1.00 uL]
Ins1 cells were seeded in 24 well-plates [˜10^6 cells/well] and at 80% confluence, were cultured overnight in RPMI 1640 medium containing 2.5 mM glucose and 2.5% fetal bovine serum supplemented with 100 IU/ml penicillin and […], 1 mM sodium pyruvate, 2-mercaptoethanol (50 μM) and 10 mM HEPES (pH 7.4). […] At the end of the stimulation supernatant was collected and insulin released into the medium was quantified by ELISA as per manufacturer's protocol. […]

STC-1 cells [1] = assay: ERK phosphorylation in STC-1 cells (immunoblot); settings: 15 minutes
Procedure: For the experiments summarized in FIG. 50, STC-1 cells were incubated with 9-PAHSA, 5-PAHSA or 9-OAHSA at the indicated concentrations. Cells were harvested and lysed and proteins were separated by SDS PAGE and transferred onto nitrocellulose filters. The phosphorylation of ERK and the amount of total ERK was determined by immunoblotting with antibodies specific for total or phosphor-ERK. DMSO was the control. For ERK phosphorylation, cells were serum deprived overnight and stimulated with FAHFAs or vehicle as indicated for 15 minutes followed by lysis in RIPA buffer and analysis by SDS-PAGE

STC-1 cells [2] = assay: GLP-1 secretion in STC-1 enteroendocrine cells (ELISA)
Procedure: For the experiments summarized in FIG. 51 STC-1 cells were incubated with vehicle (DMSO), 9-PAHSA, 5-PAHSA or 9-OAHSA at the indicated concentrations or lineolic acid (100 uM) as a positive control. Media was harvested and GLP-1 was measured by ELISA.
For the experiments summarized in FIG. 52, the same protocol as described for FIG. 51 was used, except in this experiment a time course was performed. For both FIG. 51 and FIG. 52, for GLP-1 secretion STC1 cells were washed 3× with serum free culture media followed by stimulation with FAHFAs or vehicle at the indicated concentrations and timepoints. Levels of active GLP-1 were measured by ELISA.

STC-1 cells [3] = assay: Calcium flux (FURA2) in STC-1 cells; settings: 100 uM, no extracellular Ca2+
Procedure: For the experiments summarized in FIG. 49 the method is: Cells grown on collagen coated glass slides were preloaded with the calcium indicator, FURA2, for 60 minutes. Buffer containing either FAHFAs or vehicle was incubated with cells for a period of 3 minutes followed by washout with buffer alone. FURA2 fluorescence, an indicator of Calcium mobilization, was monitored continuously before and during the addition of compounds and throughout the washout period. Results were analyzed with metamorph software. Calcium Flux in STC-1 (intestinal enteroendocrine) cells in the absence of extracellular calcium (calcium free buffer). Ligands were injected after 3 minutes and washed out after an additional 3 minutes. The data presented is the average fold change in Fura2 fluorescence for 10 individual STC-1 cells in the same field.
DMSO control had no effect. Top panel is linoleic acid, a positive control. Middle panel 9-PAHSA (100 uM). Bottom panel 5-PAHSA (100 μM). These experiments were done in the absence of extracellular calcium.

Row | Compound | activation of GPR120 (GPR120) | insulin secretion (Ins1 cells) | ERK phosphorylation (STC-1 cells [1]) | GLP-1 secretion (STC-1 cells [2]) | Ca2+ flux from intracellular stores (STC-1 cells [3]) | ligand for GPR120 (GPR120; bar graph and titration curve) | time course for GLP-1 secretion (STC-1 cells [2])
1 | CCCCCCCCCCCCCCCC(=O)OC(CCCCCCCCCCCCC)CCCC(=O)O (stereo not drawn) [5-PAHSA] | activate GPR120 | potentiate insulin secretion | induce ERK phosphorylation | induce GLP-1 secretion | induce Ca^2+ flux from intracellular stores | – | –
2 | CCCCCCCCCCCCCCCC(=O)OC(CCCCCCCCC)CCCCCCCC(=O)O (stereo not drawn) [9-PAHSA, palmitoyl-9-hydroxystearic acid] | activate GPR120 | potentiate insulin secretion | induce ERK phosphorylation | induce GLP-1 secretion | induce Ca^2+ flux from intracellular stores | is a ligand for the GPCR, GPR120 | very rapid and sustained
